Results reported in ChEMBL document CHEMBL4196206, “Aturanosides A and B, Glycosylated Anthraquinones with Antiangiogenic Activity from a Soil-Derived Streptomyces Species” (J Nat Prod, 2018).
Active and inactive are the calls of the source. The rule behind the calls is not given here.

Legend:
HUVEC [1] = assay: Down regulation of VE-cadherin expression in VEGF-stimulated HUVEC at 10 to 50 uM after 6 hrs by Western blot analysis; type: functional, cell-based; details: Homo sapiens
[2] = target: Vascular endothelial growth factor receptor 2 (Homo sapiens) (UniProt P35968); assay: Inhibition of VEGFR2 phosphorylation in VEGF-stimulated HUVEC at 10 to 50 uM after 6 hrs by Western blot analysis; type: cell-based
Vascular endothelial growth factor receptor 2 (Homo sapiens), sequence (P35968 whole entry): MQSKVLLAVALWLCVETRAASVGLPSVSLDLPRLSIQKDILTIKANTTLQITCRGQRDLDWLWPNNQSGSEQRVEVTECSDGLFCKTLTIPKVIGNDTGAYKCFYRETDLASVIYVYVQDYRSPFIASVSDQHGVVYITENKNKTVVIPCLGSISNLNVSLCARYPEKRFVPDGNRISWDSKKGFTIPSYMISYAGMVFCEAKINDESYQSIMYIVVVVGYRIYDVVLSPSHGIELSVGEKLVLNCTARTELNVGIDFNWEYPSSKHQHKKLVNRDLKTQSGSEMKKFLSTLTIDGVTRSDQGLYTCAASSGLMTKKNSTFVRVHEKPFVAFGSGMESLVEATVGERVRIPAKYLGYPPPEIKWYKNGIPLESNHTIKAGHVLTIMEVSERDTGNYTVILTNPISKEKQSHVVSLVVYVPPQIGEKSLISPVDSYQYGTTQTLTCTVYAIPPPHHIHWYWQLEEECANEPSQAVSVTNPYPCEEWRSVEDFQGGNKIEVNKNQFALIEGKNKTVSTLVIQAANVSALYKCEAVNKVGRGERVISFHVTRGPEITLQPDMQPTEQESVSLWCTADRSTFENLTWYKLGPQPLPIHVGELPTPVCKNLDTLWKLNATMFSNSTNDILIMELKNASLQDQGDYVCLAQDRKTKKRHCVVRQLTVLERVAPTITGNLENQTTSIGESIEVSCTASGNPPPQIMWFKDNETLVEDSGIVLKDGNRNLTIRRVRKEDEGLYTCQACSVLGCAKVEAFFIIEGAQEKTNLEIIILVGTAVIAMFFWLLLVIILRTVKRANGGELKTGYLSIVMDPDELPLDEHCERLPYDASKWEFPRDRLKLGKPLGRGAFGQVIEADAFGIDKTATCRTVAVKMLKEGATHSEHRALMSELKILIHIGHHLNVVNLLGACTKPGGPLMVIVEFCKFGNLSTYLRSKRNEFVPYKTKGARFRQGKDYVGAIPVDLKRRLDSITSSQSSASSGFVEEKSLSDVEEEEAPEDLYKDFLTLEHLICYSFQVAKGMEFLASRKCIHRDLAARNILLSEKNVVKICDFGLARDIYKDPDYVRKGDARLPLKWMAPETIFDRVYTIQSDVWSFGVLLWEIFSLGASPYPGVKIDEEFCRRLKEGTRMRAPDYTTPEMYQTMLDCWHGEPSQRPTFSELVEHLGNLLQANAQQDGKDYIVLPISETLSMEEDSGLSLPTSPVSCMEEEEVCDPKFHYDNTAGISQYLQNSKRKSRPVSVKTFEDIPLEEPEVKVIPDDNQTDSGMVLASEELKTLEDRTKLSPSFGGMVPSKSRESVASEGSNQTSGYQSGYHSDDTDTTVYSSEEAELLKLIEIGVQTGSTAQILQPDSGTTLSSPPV

HUVEC [3] = assay: Cytotoxicity against VEGF-stimulated HUVEC at 100 uM after 24 hrs by EZ-Cytox cell viability assay; type: cell-based; details: human
HUVEC [4] = assay: Antiangiogenic activity in HUVEC assessed as inhibition of VEGF-induced capillary tube formation by matrigel-based microscopic analysis; type: functional, cell-based; details: Homo sapiens
HUVEC [5] = assay: Antiinvasive activity in HUVEC assessed as inhibition of VEGF-induced cell invasion at 25 uM by crystal violet staining based matrigel invasion chamber assay; type: functional; details: Homo sapiens
HUVEC [6] = assay: Antiinvasive activity in HUVEC assessed as inhibition of VEGF-induced cell invasion by crystal violet staining based matrigel invasion chamber assay; type: functional; details: Homo sapiens
HUVEC [7] = assay: Down regulation of VE-cadherin expression in VEGF-stimulated HUVEC after 6 hrs by Western blot analysis; type: functional, cell-based; details: Homo sapiens
[8] = target: Vascular endothelial growth factor receptor 2 (Homo sapiens) (UniProt P35968); assay: Inhibition of VEGFR2 phosphorylation in VEGF-stimulated HUVEC after 6 hrs by Western blot analysis; type: cell-based

Row | Compound | Activity (HUVEC [1]) | inhibition [2] | Activity (HUVEC [3]) | inhibition (HUVEC [4]) | inhibition (HUVEC [5]) | inhibition (HUVEC [6]) | Activity (HUVEC [7]) | inhibition [8]
1 | CCCc1cc(O[C@@H]2O[C@@H](C)[C@H](O)[C@@H](O)[C@H]2O)cc2c1C(=O)c1c(O)cc(O)cc1C2=O | Active | Active | Non-Toxic | Dose-dependent effect | Active |  |  | 
2 | CCCc1c(C(=O)O)c(O)cc2c1C(=O)c1c(O)cc(O)cc1C2=O |  |  |  | inactive |  | inactive | inactive | inactive
3 | CCCc1cc(O[C@@H]2O[C@@H](C)[C@H](O)[C@@H](O)[C@H]2OC2O[C@H](CO)[C@@H](O)[C@H](O)[C@H]2NC(C)=O)cc2c1C(=O)c1c(O)cc(O)cc1C2=O (some centres undefined) | Active | Active | Non-Toxic | Dose-dependent effect | Active |  |  | 
